Reference: patent US9266871B2, “Trifluoromethyl-substituted fused pyrimidines and their use” (BAYER PHARMA AKTIENGESELLSCHAFT, priority 2013, dated 2016)

Test system: spontaneously hypertensive rats (SHR Okamoto)
Test: Radiotelemetric measurement of blood pressure on conscious spontaneously hypertensive rats
Format: in vivo, rat
Text: B-3. Radiotelemetric Measurement of Blood Pressure on Conscious Spontaneously Hypertensive Rats
A commercially available telemetry system from DATA SCIENCES INTERNATIONAL DSI, USA, is employed for the blood pressure measurement on conscious rats described below.
The system consists of 3 main components: • implantable transmitters (Physiotel® telemetry transmitter) • receivers (Physiotel® receiver) which are linked via a multiplexer (DSI Data Exchange Matrix) to a • data acquisition computer.
The telemetry system makes it possible to continuously record blood pressure, heart rate and body motion of conscious animals in their usual habitat.
The investigations are carried out on adult female spontaneously hypertensive rats (SHR Okamoto) with a body weight of >200 g. SHR/NCrl from the Okamoto Kyoto School of Medicine, 1963 were a cross of male Wistar Kyoto rats with highly elevated blood pressure and female rats having a slightly elevated blood pressure and at F13 handed over to the U.S. National Institutes of Health.
Unless indicated otherwise, the substances to be investigated are administered orally by gavage in each case to a group of animals (n=6). The test substances are dissolved in suitable solvent mixtures, or suspended in 0.5% strength Tylose, appropriate for an administration volume of 2 ml/kg of body weight.
In the standard procedure, the following are measured for 10-second periods in each case: • systolic blood pressure (SBP) • diastolic blood pressure (DBP) • mean arterial pressure (MAP) • heart rate (HR) • activity (ACT).
The acquisition of measurements is repeated under computer control at 5-minute intervals. The source data obtained as absolute value are corrected in the diagram with the currently measured barometric pressure (Ambient Pressure Reference Monitor; APR-1) and stored as individual data. Further technical details are given in the extensive documentation from the manufacturing company (DSI).
Unless indicated otherwise, the test substances are administered at 9.00 am on the day of the experiment. Following the administration, the parameters described above are measured over 24 hours.
After the end of the experiment, the acquired individual data are sorted using the analysis software (DATAQUEST™ A.R.T.™ ANALYSIS). The blank value is assumed to be the time 2 hours before administration, and so the selected data set encompasses the period from 7.00 am on the day of the experiment to 9.00 am the following day.
The data are smoothed over a presettable time by determination of the average (30-minute average) and transferred as a text file to a storage medium. The measured values presorted and compressed in this way are transferred into Excel templates and tabulated. For each day of the experiment, the data obtained are stored in a dedicated file bearing the number of the experiment. Results and test protocols are filed sorted by numbers.

C[C@@]1(C(F)(F)F)C(=O)Nc2nc(-c3nn(Cc4ncccc4F)c4ncc(F)cc34)nc(NCCC(F)(F)F)c21 (single isomer, unassigned) [Example 1-1]
mean blood pressure (0.03 mg/kg, 0 hours after substance administration): 148.8 mmHg | mean blood pressure (0.03 mg/kg, 1 hours after substance administration): 133.5 mmHg | mean blood pressure (0.03 mg/kg, 2 hours after substance administration): 127.3 mmHg | mean blood pressure (0.03 mg/kg, 3 hours after substance administration): 128.8 mmHg | mean blood pressure (0.03 mg/kg, 4 hours after substance administration): 132.3 mmHg | mean blood pressure (0.03 mg/kg, 5 hours after substance administration): 126.0 mmHg | mean blood pressure (0.03 mg/kg, 6 hours after substance administration): 124.5 mmHg | mean blood pressure (0.03 mg/kg, 7 hours after substance administration): 138.8 mmHg | mean blood pressure (0.03 mg/kg, 8 hours after substance administration): 143.8 mmHg | mean blood pressure (0.03 mg/kg, 9 hours after substance administration): 136.5 mmHg | mean blood pressure (0.03 mg/kg, 10 hours after substance administration): 143.8 mmHg | mean blood pressure (0.03 mg/kg, 11 hours after substance administration): 141.7 mmHg | mean blood pressure (0.03 mg/kg, 12 hours after substance administration): 141.7 mmHg | mean blood pressure (0.03 mg/kg, 13 hours after substance administration): 150.5 mmHg | mean blood pressure (0.03 mg/kg, 14 hours after substance administration): 150.8 mmHg | mean blood pressure (0.03 mg/kg, 15 hours after substance administration): 153.8 mmHg | mean blood pressure (0.03 mg/kg, 16 hours after substance administration): 145.7 mmHg | mean blood pressure (0.03 mg/kg, 17 hours after substance administration): 155.3 mmHg | mean blood pressure (0.03 mg/kg, 18 hours after substance administration): 151.2 mmHg | mean blood pressure (0.03 mg/kg, 19 hours after substance administration): 146.3 mmHg | mean blood pressure (0.03 mg/kg, 20 hours after substance administration): 140.2 mmHg | mean blood pressure (0.03 mg/kg, 21 hours after substance administration): 142.2 mmHg | mean blood pressure (0.03 mg/kg, 22 hours after substance administration): 142.8 mmHg | mean blood pressure (0.03 mg/kg, 23 hours after substance administration): 143.0 mmHg | mean blood pressure (0.03 mg/kg, 24 hours after substance administration): 143.2 mmHg | mean blood pressure (0.3 mg/kg p.o., 0 hours after substance administration): 138.7 mmHg | mean blood pressure (0.3 mg/kg p.o., 1 hours after substance administration): 116.3 mmHg | mean blood pressure (0.3 mg/kg p.o., 2 hours after substance administration): 106.8 mmHg | mean blood pressure (0.3 mg/kg p.o., 3 hours after substance administration): 107.2 mmHg | mean blood pressure (0.3 mg/kg p.o., 4 hours after substance administration): 105.5 mmHg | mean blood pressure (0.3 mg/kg p.o., 5 hours after substance administration): 106.2 mmHg | mean blood pressure (0.3 mg/kg p.o., 6 hours after substance administration): 106.8 mmHg | mean blood pressure (0.3 mg/kg p.o., 7 hours after substance administration): 101.7 mmHg | mean blood pressure (0.3 mg/kg p.o., 8 hours after substance administration): 111.3 mmHg | mean blood pressure (0.3 mg/kg p.o., 9 hours after substance administration): 109.0 mmHg | mean blood pressure (0.3 mg/kg p.o., 10 hours after substance administration): 113.3 mmHg | mean blood pressure (0.3 mg/kg p.o., 11 hours after substance administration): 114.8 mmHg | mean blood pressure (0.3 mg/kg p.o., 12 hours after substance administration): 112.0 mmHg | mean blood pressure (0.3 mg/kg p.o., 13 hours after substance administration): 117.2 mmHg | mean blood pressure (0.3 mg/kg p.o., 14 hours after substance administration): 115.7 mmHg | mean blood pressure (0.3 mg/kg p.o., 15 hours after substance administration): 117.8 mmHg | mean blood pressure (0.3 mg/kg p.o., 16 hours after substance administration): 111.5 mmHg | mean blood pressure (0.3 mg/kg p.o., 17 hours after substance administration): 121.7 mmHg | mean blood pressure (0.3 mg/kg p.o., 18 hours after substance administration): 132.3 mmHg | mean blood pressure (0.3 mg/kg p.o., 19 hours after substance administration): 117.0 mmHg | mean blood pressure (0.3 mg/kg p.o., 20 hours after substance administration): 110.7 mmHg | mean blood pressure (0.3 mg/kg p.o., 21 hours after substance administration): 124.0 mmHg | mean blood pressure (0.3 mg/kg p.o., 22 hours after substance administration): 125.5 mmHg | mean blood pressure (0.3 mg/kg p.o., 23 hours after substance administration): 139.0 mmHg | mean blood pressure (0.3 mg/kg p.o., 24 hours after substance administration): 150.5 mmHg
